Data on one compound can be found in BindingDB's records for doi:10.1016/j.bmcl.2006.01.105 (Wyeth Research, 2006).

The nature of this test: Antiviral activity against Hepatitis C virus replicon in Huh7 cells.

Take `CCCC1(C(=O)O)CCc2c1[nH]c1c(Cl)ccc(Cl)c21` (stereo unspecified) [5,8-dichloro-3-propyl-1,2,3,4-tetrahydrocyclopenta[b]indole-3-carboxylic acid]: inhibition was half-maximal at 27 µM (IC50).

As usually defined, the IC50 is the concentration that gives 50% inhibition. High values mean lower potency, low ones higher potency.
